# Experimental data from ChEMBL document CHEMBL1909046, “DrugMatrix in vitro pharmacology data”.
# Target: T1, Endothelin-1 receptor (Homo sapiens, UniProt P25101); further: in other assays of this panel Not Active means under 50% inhibition at 10 µM
# T1 sequence (P25101 whole entry): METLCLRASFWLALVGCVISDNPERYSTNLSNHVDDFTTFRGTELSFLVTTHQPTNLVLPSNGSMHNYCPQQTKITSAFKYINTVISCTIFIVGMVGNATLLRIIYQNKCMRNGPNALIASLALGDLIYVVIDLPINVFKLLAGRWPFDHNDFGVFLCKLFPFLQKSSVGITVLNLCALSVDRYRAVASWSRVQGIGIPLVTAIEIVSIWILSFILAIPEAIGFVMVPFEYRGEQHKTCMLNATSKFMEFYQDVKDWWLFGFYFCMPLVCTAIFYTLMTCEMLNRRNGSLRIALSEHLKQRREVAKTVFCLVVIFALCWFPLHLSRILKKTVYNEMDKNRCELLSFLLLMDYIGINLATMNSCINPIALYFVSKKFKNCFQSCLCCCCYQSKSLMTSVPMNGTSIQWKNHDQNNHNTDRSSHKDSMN
# Experiment: not given
# Type: cell membranes, Membrane
# Details: cho-k1
row,Structure (SMILES),IC50
1,CCCCC(=O)N(Cc1ccc(-c2ccccc2-c2nnn[nH]2)cc1)[C@H](C(=O)O)C(C)C,Not Active
2,O=C(O)COc1ccc(C(=O)c2cccs2)c(Cl)c1Cl,Not Active
3,CN1[C@@H]2CC[C@H]1C[C@@H](OC(c1ccccc1)c1ccccc1)C2 [BENZTROPINE],Not Active
4,C[C@@](Cc1ccc(O)c(O)c1)(NN)C(=O)O.O [CARBIDOPA],Not Active
5,CN1CCN(C2=Nc3cc(Cl)ccc3Nc3ccccc32)CC1 [CLOZAPINE],Not Active

# Target: Glycine receptor (Rattus norvegicus, UniProt P22771+P24524+P07727+P20781); further: in other assays of this panel Not Active means under 50% inhibition at 10 µM
# Experiment: not given
# Type: cell membranes, Wistar, Spinal cord, Membrane
# Details: not given
row,Structure (SMILES),IC50
1,CCCCC(=O)N(Cc1ccc(-c2ccccc2-c2nnn[nH]2)cc1)[C@H](C(=O)O)C(C)C,Not Active
2,O=C(O)COc1ccc(C(=O)c2cccs2)c(Cl)c1Cl,Not Active
3,CN1[C@@H]2CC[C@H]1C[C@@H](OC(c1ccccc1)c1ccccc1)C2 [BENZTROPINE],Not Active
4,C[C@@](Cc1ccc(O)c(O)c1)(NN)C(=O)O.O [CARBIDOPA],Not Active
5,CN1CCN(C2=Nc3cc(Cl)ccc3Nc3ccccc32)CC1 [CLOZAPINE],Not Active

# Target: T2, 3-hydroxy-3-methylglutaryl-coenzyme A reductase (Homo sapiens, UniProt P04035);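 further: enzyme inhibition assay of HMG-CoA reductase using radiolabeled [14C]HMG-CoA as substrate; in other assays of this panel Not Active means under 50% inhibition at 10 µM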
# T2 sequence (P04035 whole entry): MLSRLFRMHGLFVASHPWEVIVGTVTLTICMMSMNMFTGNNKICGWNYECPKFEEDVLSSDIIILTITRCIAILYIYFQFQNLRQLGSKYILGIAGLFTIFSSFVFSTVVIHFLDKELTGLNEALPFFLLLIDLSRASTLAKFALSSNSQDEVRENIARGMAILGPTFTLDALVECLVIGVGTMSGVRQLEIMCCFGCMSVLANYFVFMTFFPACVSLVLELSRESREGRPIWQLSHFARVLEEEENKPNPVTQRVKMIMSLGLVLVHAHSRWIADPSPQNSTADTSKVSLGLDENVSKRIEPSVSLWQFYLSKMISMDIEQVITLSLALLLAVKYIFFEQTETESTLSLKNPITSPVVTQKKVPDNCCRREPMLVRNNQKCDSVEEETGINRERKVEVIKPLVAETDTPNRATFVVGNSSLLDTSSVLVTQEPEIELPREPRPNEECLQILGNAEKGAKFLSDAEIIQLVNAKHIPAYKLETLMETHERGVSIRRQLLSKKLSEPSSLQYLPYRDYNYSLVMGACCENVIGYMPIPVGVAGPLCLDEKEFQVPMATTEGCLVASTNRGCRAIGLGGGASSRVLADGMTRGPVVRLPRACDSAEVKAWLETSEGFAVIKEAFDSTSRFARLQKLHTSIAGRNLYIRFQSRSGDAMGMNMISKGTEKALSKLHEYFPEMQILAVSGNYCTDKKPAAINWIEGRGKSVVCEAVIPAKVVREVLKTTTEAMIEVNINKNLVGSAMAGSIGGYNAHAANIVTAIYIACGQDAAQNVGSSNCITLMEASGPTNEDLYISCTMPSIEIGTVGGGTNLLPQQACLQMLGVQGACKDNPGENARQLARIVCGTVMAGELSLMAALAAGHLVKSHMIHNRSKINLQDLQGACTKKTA
# Experiment: not given
# Parameters: species or system Escherichia coli
# Details: not given
row,Structure (SMILES),IC50
1,CCCCC(=O)N(Cc1ccc(-c2ccccc2-c2nnn[nH]2)cc1)[C@H](C(=O)O)C(C)C,Not Active
2,O=C(O)COc1ccc(C(=O)c2cccs2)c(Cl)c1Cl,Not Active
3,CN1[C@@H]2CC[C@H]1C[C@@H](OC(c1ccccc1)c1ccccc1)C2 [BENZTROPINE],Not Active
4,C[C@@](Cc1ccc(O)c(O)c1)(NN)C(=O)O.O [CARBIDOPA],Not Active
5,CN1CCN(C2=Nc3cc(Cl)ccc3Nc3ccccc32)CC1 [CLOZAPINE],Not Active

# Target: T3, Polyunsaturated fatty acid lipoxygenase ALOX15 (Oryctolagus cuniculus, UniProt P12530);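 further: inhibition of 15-lipoxygenase enzyme activity measured with linoleic acid as the substrate; in other assays of this panel Not Active means under 50% inhibition at 10 µM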
# T3 sequence (P12530 whole entry): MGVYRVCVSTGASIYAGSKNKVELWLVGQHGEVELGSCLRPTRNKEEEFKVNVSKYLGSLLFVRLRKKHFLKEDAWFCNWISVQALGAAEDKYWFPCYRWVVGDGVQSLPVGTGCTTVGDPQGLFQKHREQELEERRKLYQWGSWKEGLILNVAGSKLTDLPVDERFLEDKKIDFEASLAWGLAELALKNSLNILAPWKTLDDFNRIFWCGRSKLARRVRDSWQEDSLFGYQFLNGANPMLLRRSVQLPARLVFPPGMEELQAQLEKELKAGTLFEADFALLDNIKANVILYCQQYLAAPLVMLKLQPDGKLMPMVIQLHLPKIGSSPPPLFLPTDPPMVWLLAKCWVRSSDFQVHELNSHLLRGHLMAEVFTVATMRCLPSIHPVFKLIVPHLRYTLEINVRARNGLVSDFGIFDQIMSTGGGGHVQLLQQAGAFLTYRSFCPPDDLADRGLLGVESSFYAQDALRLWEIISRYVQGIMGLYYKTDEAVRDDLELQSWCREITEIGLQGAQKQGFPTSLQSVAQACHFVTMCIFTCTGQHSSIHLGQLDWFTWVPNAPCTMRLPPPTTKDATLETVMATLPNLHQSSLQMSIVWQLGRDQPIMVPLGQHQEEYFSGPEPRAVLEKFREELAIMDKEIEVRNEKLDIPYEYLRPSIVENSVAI
# Experiment: biochemical
# Type: tissue-based, Reticulocytes
# Details: reticulocytes
row,Structure (SMILES),IC50
1,CCCCC(=O)N(Cc1ccc(-c2ccccc2-c2nnn[nH]2)cc1)[C@H](C(=O)O)C(C)C,Not Active
2,O=C(O)COc1ccc(C(=O)c2cccs2)c(Cl)c1Cl,Not Active
3,CN1[C@@H]2CC[C@H]1C[C@@H](OC(c1ccccc1)c1ccccc1)C2 [BENZTROPINE],Not Active
4,C[C@@](Cc1ccc(O)c(O)c1)(NN)C(=O)O.O [CARBIDOPA],Not Active
5,CN1CCN(C2=Nc3cc(Cl)ccc3Nc3ccccc32)CC1 [CLOZAPINE],Not Active

# Target: T4, Muscarinic acetylcholine receptor M4 (Homo sapiens, UniProt P08173); further: in other assays of this panel Not Active means under 50% inhibition at 10 µM
# T4 sequence (P08173 whole entry): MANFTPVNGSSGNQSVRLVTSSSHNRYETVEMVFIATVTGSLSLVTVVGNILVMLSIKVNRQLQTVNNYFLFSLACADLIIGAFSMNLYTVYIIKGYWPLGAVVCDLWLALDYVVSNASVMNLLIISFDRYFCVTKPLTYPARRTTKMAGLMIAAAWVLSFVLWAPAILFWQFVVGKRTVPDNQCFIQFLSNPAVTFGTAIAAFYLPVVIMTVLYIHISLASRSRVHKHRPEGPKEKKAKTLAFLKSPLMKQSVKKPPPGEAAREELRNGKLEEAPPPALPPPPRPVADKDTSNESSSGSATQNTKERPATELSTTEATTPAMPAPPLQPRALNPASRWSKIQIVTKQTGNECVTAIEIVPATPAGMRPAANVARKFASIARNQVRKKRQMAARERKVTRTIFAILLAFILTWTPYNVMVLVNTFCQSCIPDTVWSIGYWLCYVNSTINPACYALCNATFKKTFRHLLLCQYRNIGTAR
# Experiment: not given
# Type: cell membranes, CHO-K1, Membrane
# Details: cho-k1
row,Structure (SMILES),IC50
1,CCCCC(=O)N(Cc1ccc(-c2ccccc2-c2nnn[nH]2)cc1)[C@H](C(=O)O)C(C)C,Not Active
2,O=C(O)COc1ccc(C(=O)c2cccs2)c(Cl)c1Cl,Not Active
3,C[C@@](Cc1ccc(O)c(O)c1)(NN)C(=O)O.O [CARBIDOPA],Not Active

# Target: Epidermal growth factor receptor (Homo sapiens, UniProt P00533)
# Experiment: DRUGMATRIX: Protein Tyrosine Kinase, EGF Receptor enzyme inhibition (substrate: Poly(Glu:Tyr))
# Type: cell-based, Insect cells
# Details: insect cells; Not Active = under 50% inhibition at 10 µM
# Chain of Epidermal growth factor receptor (P00533 whole entry): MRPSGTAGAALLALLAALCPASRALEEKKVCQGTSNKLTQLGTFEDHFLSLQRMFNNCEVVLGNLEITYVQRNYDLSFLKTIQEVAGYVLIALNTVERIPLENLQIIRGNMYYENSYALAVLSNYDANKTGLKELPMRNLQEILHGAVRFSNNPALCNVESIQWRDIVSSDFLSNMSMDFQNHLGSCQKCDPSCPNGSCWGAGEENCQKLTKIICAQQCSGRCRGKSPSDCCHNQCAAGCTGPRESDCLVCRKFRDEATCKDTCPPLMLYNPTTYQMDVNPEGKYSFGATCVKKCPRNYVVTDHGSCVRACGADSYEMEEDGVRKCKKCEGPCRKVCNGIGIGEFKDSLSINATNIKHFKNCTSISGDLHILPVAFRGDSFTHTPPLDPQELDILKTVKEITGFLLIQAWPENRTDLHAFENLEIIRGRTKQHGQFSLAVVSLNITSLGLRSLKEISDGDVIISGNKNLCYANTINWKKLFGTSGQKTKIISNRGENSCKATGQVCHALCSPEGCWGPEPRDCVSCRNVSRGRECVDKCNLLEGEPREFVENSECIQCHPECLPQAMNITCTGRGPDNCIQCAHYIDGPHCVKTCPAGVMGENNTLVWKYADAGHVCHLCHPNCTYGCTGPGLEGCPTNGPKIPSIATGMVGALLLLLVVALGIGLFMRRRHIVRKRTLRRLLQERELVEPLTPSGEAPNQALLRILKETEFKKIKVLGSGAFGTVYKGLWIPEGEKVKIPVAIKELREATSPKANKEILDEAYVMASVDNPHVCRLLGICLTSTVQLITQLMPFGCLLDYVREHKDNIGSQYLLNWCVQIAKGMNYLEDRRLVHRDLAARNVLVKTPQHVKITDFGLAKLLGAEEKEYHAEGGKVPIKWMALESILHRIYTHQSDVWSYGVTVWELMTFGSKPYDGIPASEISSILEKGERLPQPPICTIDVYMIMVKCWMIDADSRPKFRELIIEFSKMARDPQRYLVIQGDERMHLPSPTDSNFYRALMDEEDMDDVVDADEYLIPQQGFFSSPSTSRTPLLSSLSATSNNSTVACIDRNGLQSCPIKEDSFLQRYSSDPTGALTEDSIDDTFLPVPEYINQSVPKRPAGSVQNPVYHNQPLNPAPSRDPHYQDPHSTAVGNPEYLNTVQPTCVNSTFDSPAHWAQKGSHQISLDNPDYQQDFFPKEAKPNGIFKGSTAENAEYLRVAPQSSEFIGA
row,Structure (SMILES),IC50
1,CCCCC(=O)N(Cc1ccc(-c2ccccc2-c2nnn[nH]2)cc1)[C@H](C(=O)O)C(C)C,Not Active
2,O=C(O)COc1ccc(C(=O)c2cccs2)c(Cl)c1Cl,Not Active
3,CN1[C@@H]2CC[C@H]1C[C@@H](OC(c1ccccc1)c1ccccc1)C2 [BENZTROPINE],Not Active
4,C[C@@](Cc1ccc(O)c(O)c1)(NN)C(=O)O.O [CARBIDOPA],Not Active
5,CN1CCN(C2=Nc3cc(Cl)ccc3Nc3ccccc32)CC1 [CLOZAPINE],Not Active

# Target: Cytochrome P450 3A4 (Homo sapiens, UniProt P08684); further: in other assays of this panel Not Active means under 50% inhibition at 10 µM
# Experiment: not given
# Details: bti-tn-5b1-4
# Chain of Cytochrome P450 3A4 (P08684 whole entry): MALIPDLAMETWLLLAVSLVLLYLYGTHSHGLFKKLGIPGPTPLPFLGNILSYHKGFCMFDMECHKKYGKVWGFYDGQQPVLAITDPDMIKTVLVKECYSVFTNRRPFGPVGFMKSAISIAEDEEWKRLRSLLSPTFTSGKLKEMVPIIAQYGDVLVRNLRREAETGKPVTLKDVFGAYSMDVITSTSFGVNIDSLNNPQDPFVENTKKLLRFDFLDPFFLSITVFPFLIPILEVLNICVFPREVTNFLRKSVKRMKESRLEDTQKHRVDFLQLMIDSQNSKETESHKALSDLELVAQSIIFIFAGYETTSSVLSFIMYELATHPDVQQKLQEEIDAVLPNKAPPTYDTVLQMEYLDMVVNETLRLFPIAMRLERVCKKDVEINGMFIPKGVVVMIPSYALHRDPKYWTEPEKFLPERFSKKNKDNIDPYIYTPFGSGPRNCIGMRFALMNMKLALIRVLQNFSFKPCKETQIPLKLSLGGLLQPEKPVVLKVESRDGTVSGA
Structure (SMILES),IC50,Ki
CCCCC(=O)N(Cc1ccc(-c2ccccc2-c2nnn[nH]2)cc1)[C@H](C(=O)O)C(C)C,Not Active,Not Active
O=C(O)COc1ccc(C(=O)c2cccs2)c(Cl)c1Cl,Not Active,Not Active
CN1[C@@H]2CC[C@H]1C[C@@H](OC(c1ccccc1)c1ccccc1)C2 [BENZTROPINE],Not Active,Not Active
C[C@@](Cc1ccc(O)c(O)c1)(NN)C(=O)O.O [CARBIDOPA],Not Active,Not Active
